Measured values reported in US20050209278A1, “Piperidinyl- and piperazinyl-sulfonylmethyl hydroxamic acids and their use as protease inhibitors” (priority 2002, published 2005).
Where two headings read alike, the source gives them in different places.

Columns and labels:
MMP-9 = target: T1, MMP-9 (Homo sapiens, UniProt P14780); experiment: In vitro MMP inhibition, Ki determination (fluorogenic substrate II); assay type: biochemical
T1 construct: made in house; host or cells: MMP-9-transfected HT1080 cells (spent media)
Outline: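 HT1080-derived MMP-9, activated with APMA, trypsin or MMP-3, incubated 1 hr at room temperature with inhibitor and 4 μM fluorogenic substrate II (at or below Km) in pH 7.5 Tris/NaCl/CaCl2 buffer; ex 330/em 420 nm. Ki from Morrison-equation regression, without substrate correction.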

MMP-14 = target: T2, MMP-14 (Homo sapiens, UniProt P50281); experiment: as above; assay type: biochemical; conditions: read-out: MMP-14 Ki
T2 construct: The catalytic domain enzyme was expressed in E. coli inclusion bodies, solubilized in urea; made in house
Outline: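 Apparent Ki was fitted with Morrison's equation from reaction rates at a single low enzyme level. Enzyme was APMA- or trypsin-activated refolded MMP-14 catalytic domain, buffered at pH 7.5 with 10 mM CaCl2.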

T1 sequence (P14780 107-707 limits assumed): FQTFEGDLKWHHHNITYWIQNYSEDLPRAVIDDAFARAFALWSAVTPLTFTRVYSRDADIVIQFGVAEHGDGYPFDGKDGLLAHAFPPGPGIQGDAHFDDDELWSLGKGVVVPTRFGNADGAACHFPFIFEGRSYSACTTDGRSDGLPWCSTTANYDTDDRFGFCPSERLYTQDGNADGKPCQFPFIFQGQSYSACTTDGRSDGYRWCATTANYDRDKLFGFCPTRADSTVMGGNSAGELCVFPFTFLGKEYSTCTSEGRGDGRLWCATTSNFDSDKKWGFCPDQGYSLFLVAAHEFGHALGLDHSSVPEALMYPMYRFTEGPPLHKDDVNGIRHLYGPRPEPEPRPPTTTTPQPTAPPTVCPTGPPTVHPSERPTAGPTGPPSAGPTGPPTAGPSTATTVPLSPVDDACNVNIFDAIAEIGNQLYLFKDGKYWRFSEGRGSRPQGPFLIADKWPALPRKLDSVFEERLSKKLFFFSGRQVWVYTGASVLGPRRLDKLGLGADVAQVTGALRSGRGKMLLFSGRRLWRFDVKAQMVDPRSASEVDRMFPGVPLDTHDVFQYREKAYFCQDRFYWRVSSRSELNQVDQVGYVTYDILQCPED

## O=C(NO)C1(S(=O)(=O)N2CCN(c3ccc(C(F)(F)F)cn3)CC2)CCOCC1 [Example 94]
MMP-9; value not in parenthesis
  Ki: 14.3 nM
MMP-14; value not in parenthesis
  Ki: 221 nM

## CCCCCc1ccc(N2CCN(S(=O)(=O)C3(C(=O)NO)CCN(c4ncccn4)CC3)CC2)nc1 [Example 95]
MMP-9; value not in parenthesis
  Ki: 0.99 nM
MMP-14; value not in parenthesis
  Ki: 597 nM

## CCCCc1ccc(N2CCN(S(=O)(=O)C3(C(=O)NO)CCN(c4cccnc4)CC3)CC2)nc1 [Example 96]
MMP-9; value not in parenthesis
  Ki: 0.21 nM
MMP-14; value not in parenthesis
  Ki: 816 nM

## CCCCOc1ccc(N2CCN(S(=O)(=O)C3(C(=O)NO)CCN(C(=O)OCC(C)(C)C)CC3)CC2)cc1 [Example 97]
MMP-9; value not in parenthesis
  Ki: 21.9 nM
MMP-14; value not in parenthesis
  Ki: > 10000 nM

## C#CCOC(=O)N1CCC(C(=O)NO)(S(=O)(=O)N2CCN(c3ccc(OCCCC)cc3)CC2)CC1 [Example 98]
MMP-9; value not in parenthesis
  Ki: 1.24 nM
MMP-14; value not in parenthesis
  Ki: 1620 nM

## CCCCc1ccc(N2CCN(S(=O)(=O)C3(C(=O)NO)CCN(c4ncccn4)CC3)CC2)nc1 [Example 99]
MMP-9; value not in parenthesis
  Ki: 0.16 nM
MMP-14; value not in parenthesis
  Ki: 225 nM

## CCCCOc1ccc(N2CCN(S(=O)(=O)C3(C(=O)NO)CCOCC3)CC2)nc1 [Example 100]
MMP-9; value not in parenthesis
  Ki: 0.3 nM
MMP-14; value not in parenthesis
  Ki: 411 nM

## CCCCOc1ccc(N2CCN(S(=O)(=O)C3(C(=O)NO)CCN(c4ccc(Cl)c(Cl)c4)CC3)CC2)cc1 [Example 250]
MMP-9; value not in parenthesis
  Ki: 73.9 nM
MMP-14; value not in parenthesis
  Ki: > 10000 nM

## CCCCOc1ccc(N2CCN(S(=O)(=O)C3(C(=O)NO)CCN(c4ccc(Cl)cc4)CC3)CC2)cc1 [Example 251]
MMP-9; value outside parentheses
  Ki: 57.4 nM
MMP-14; value outside parentheses
  Ki: > 10000 nM

## CCCCOc1ccc(N2CCN(S(=O)(=O)C3(C(=O)NO)CCN(Cc4ccco4)CC3)CC2)cc1 [Example 252]
MMP-9; value outside parentheses
  Ki: 1.43 nM
MMP-14; value outside parentheses
  Ki: 5180 nM

## CCCCOc1ccc(N2CCN(S(=O)(=O)C3(C(=O)NO)CCN(C(N)=O)CC3)CC2)cc1 [Example 253]
MMP-9; value outside parentheses
  Ki: 1.57 nM
MMP-14; value outside parentheses
  Ki: 1930 nM

## CCCCOc1ccc(N2CCN(S(=O)(=O)C3(C(=O)NO)CCN(C(=O)N(C)C)CC3)CC2)cc1 [Example 254]
MMP-9; value outside parentheses
  Ki: 0.63 nM
MMP-14; value outside parentheses
  Ki: 856 nM

## CCCCOc1ccc(N2CCN(S(=O)(=O)C3(C(=O)NO)CCN(C(=O)c4ccccc4)CC3)CC2)cc1 [Example 255]
MMP-9; value outside parentheses
  Ki: 2.54 nM
MMP-14; value outside parentheses
  Ki: 5660 nM

## CCCCOc1ccc(N2CCN(S(=O)(=O)C3(C(=O)NO)CCN(c4ccc(C(F)(F)F)cn4)CC3)CC2)cc1 [Example 257]
MMP-9; value outside parentheses
  Ki: 37 nM
MMP-14; value outside parentheses
  Ki: > 10000 nM

## O=C(NO)C1(S(=O)(=O)N2CCN(c3ccc(SC(F)(F)F)cc3)CC2)CCS(=O)(=O)CC1 [Example 258]
MMP-9; value outside parentheses
  Ki: 457 nM
MMP-14; value outside parentheses
  Ki: 4890 nM

## CCCCOc1ccc(N2CCN(S(=O)(=O)C3(C(=O)NO)CCN(C(=O)c4ccncc4)CC3)CC2)cc1 [Example 259]
MMP-9; value outside parentheses
  Ki: 1.35 nM
MMP-14; value outside parentheses
  Ki: 2650 nM

## CCCCOc1ccc(N2CCN(S(=O)(=O)C3(C(=O)NO)CCN(C(=O)C4CC4)CC3)CC2)cc1 [Example 260]
MMP-9; value outside parentheses
  Ki: 0.946 nM
MMP-14; value outside parentheses
  Ki: 2800 nM

## CCc1ccc(N2CCN(S(=O)(=O)C3(C(=O)NO)CCCC3)CC2)nc1 [Example 261]
MMP-9; value outside parentheses
  Ki: 1.53 nM
MMP-14; value outside parentheses
  Ki: 48.1 nM

## CCc1ccc(N2CCN(S(=O)(=O)C3(C(=O)NO)CCCCC3)CC2)nc1 [Example 263]
MMP-9; value outside parentheses
  Ki: 0.634 nM
MMP-14; value outside parentheses
  Ki: 34 nM

## CCCCOc1ccc(N2CCN(S(=O)(=O)C3(C(=O)NO)CCN(c4ccccc4)CC3)CC2)cc1 [Example 264]
MMP-9; value outside parentheses
  Ki: 20.4 nM
MMP-14; value outside parentheses
  Ki: > 10000 nM

## CCCCOc1ccc(N2CCN(S(=O)(=O)C3(C(=O)NO)CCN(C(=O)CC(F)(F)F)CC3)CC2)cc1 [Example 265]
MMP-9; value outside parentheses
  Ki: 2.14 nM
MMP-14; value outside parentheses
  Ki: 3790 nM

## CCCCOc1ccc(N2CCN(S(=O)(=O)C3(C(=O)NO)CCN(C(=O)c4cccnc4)CC3)CC2)cc1 [Example 266]
MMP-9; value outside parentheses
  Ki: 0.957 nM
MMP-14; value outside parentheses
  Ki: 2390 nM

## CCCCOc1ccc(N2CCN(S(=O)(=O)C3(C(=O)NO)CCN(C(=O)C(C)(C)C)CC3)CC2)cc1 [Example 267]
MMP-9; value outside parentheses
  Ki: 2.54 nM
MMP-14; value outside parentheses
  Ki: > 10000 nM

## CCCCOc1ccc(N2CCN(S(=O)(=O)C3(C(=O)NO)CCN(C(=O)COC)CC3)CC2)cc1 [Example 268]
MMP-9; value outside parentheses
  Ki: 1.08 nM
MMP-14; value outside parentheses
  Ki: 1390 nM

## CCCCOc1ccc(N2CCN(S(=O)(=O)C3(C(=O)NO)CCN(C=O)CC3)CC2)cc1 [Example 269]
MMP-9; value outside parentheses
  Ki: 0.953 nM
MMP-14; value outside parentheses
  Ki: 1200 nM

## CCCCc1ccc(N2CCN(S(=O)(=O)C3(C(=O)NO)CCN(CCOC)CC3)CC2)nc1 [Example 270]
MMP-9; value outside parentheses
  Ki: 0.205 nM
MMP-14; value outside parentheses
  Ki: 1110 nM

## CCCCOc1ccc(N2CCN(S(=O)(=O)C3(C(=O)NO)CCN(C(=O)CO)CC3)CC2)cc1 [Example 271]
MMP-9; value outside parentheses
  Ki: 1.49 nM
MMP-14; value outside parentheses
  Ki: 1460 nM

## CCCCCc1ccc(N2CCN(S(=O)(=O)C3(C(=O)NO)CCN(C4CC4)CC3)CC2)cc1 [Example 272]
MMP-9; value outside parentheses
  Ki: 0.542 nM
MMP-14; value outside parentheses
  Ki: 4350 nM

## CCCCOc1ccc(N2CCN(S(=O)(=O)C3(C(=O)NO)CCN(C(=O)C(C)C)CC3)CC2)cc1 [Example 273]
MMP-9; value outside parentheses
  Ki: 1.21 nM
MMP-14; value outside parentheses
  Ki: 5090 nM

## CCCCOc1ccc(N2CCN(S(=O)(=O)C3(C(=O)NO)CCN(C(=O)CC)CC3)CC2)cc1 [Example 274]
MMP-9; value outside parentheses
  Ki: 1.66 nM
MMP-14; value outside parentheses
  Ki: 3030 nM

## CCCCOc1ccc(N2CCN(S(=O)(=O)C3(C(=O)NO)CCN(c4ccc(C)nn4)CC3)CC2)cc1 [Example 275]
MMP-9; value outside parentheses
  Ki: 0.807 nM
MMP-14; value outside parentheses
  Ki: 818 nM

## CCCCOc1ccc(N2CCN(S(=O)(=O)C3(C(=O)NO)CCNCC3)CC2)cc1 [Example 276]
MMP-9; value outside parentheses
  Ki: 9.39 nM
MMP-14; value outside parentheses
  Ki: > 10000 nM

## CCCCOc1ccc(N2CCN(S(=O)(=O)C3(C(=O)NO)CCN(C(=O)c4ccccn4)CC3)CC2)cc1 [Example 277]
MMP-9; value outside parentheses
  Ki: 0.95 nM
MMP-14; value outside parentheses
  Ki: 3020 nM

## CCCCOc1ccc(N2CCN(S(=O)(=O)C3(C(=O)NO)CCN(C(=O)CCCC)CC3)CC2)cc1 [Example 278]
MMP-9; value outside parentheses
  Ki: 2 nM
MMP-14; value outside parentheses
  Ki: 5260 nM

## CC(C)CCOc1ccc(N2CCN(S(=O)(=O)C3(C(=O)NO)CCOCC3)CC2)cc1 [Example 279]
MMP-9; value outside parentheses
  Ki: 3.07 nM
MMP-14; value outside parentheses
  Ki: 4270 nM

## CCCCOc1ccc(N2CCN(S(=O)(=O)C3(C(=O)NO)CCN(C)CC3)CC2)cc1 [Example 280]
MMP-9; value outside parentheses
  Ki: 3.61 nM
MMP-14; value outside parentheses
  Ki: 7310 nM

## CCCCOc1ccc(N2CCN(S(=O)(=O)C3(C(=O)NO)CCN(c4ccc(Cl)nn4)CC3)CC2)cc1 [Example 281]
MMP-9; value outside parentheses
  Ki: 2.16 nM
MMP-14; value outside parentheses
  Ki: 1630 nM

## CCCCOc1ccc(N2CCN(S(=O)(=O)C3(C(=O)NO)CCN(C(C)=O)CC3)CC2)cc1 [Example 282]
MMP-9; value outside parentheses
  Ki: 0.098 nM
MMP-14; value outside parentheses
  Ki: 1480 nM

## CCCCOc1ccc(N2CCN(S(=O)(=O)C3(C(=O)NO)CCN(c4ccc(O)nn4)CC3)CC2)cc1 [Example 283]
MMP-9; value outside parentheses
  Ki: 0.69 nM
MMP-14; value outside parentheses
  Ki: 549 nM

## CCCCOc1ccc(N2CCN(S(=O)(=O)C3(C(=O)NO)CCN(CCOC)CC3)CC2)c(F)c1 [Example 284]
MMP-9; value outside parentheses
  Ki: 0.99 nM
MMP-14; value outside parentheses
  Ki: 2770 nM

## CCCCOc1ccc(N2CCN(S(=O)(=O)C3(C(=O)NO)CCN(Cc4ccccc4)CC3)CC2)cc1F [Example 285]
MMP-9; value outside parentheses
  Ki: 9.83 nM
MMP-14; value outside parentheses
  Ki: > 10000 nM

## CCCCOc1ccc(N2CCN(S(=O)(=O)C3(C(=O)NO)CCNCC3)CC2)cc1F [Example 286]
MMP-9; value outside parentheses
  Ki: 22.3 nM
MMP-14; value outside parentheses
  Ki: > 10000 nM

## COCCN1CCC(C(=O)NO)(S(=O)(=O)N2CCN(c3ccc(Oc4ccccc4)cc3)CC2)CC1 [Example 287]
MMP-9; value outside parentheses
  Ki: 13.9 nM
MMP-14; value outside parentheses
  Ki: 6940 nM

## CCCCOc1ccc(N2CCN(S(=O)(=O)C3(C(=O)NO)CCN(C(=O)CN)CC3)CC2)cc1 [Example 292]
MMP-9; value outside parentheses
  Ki: 3.51 nM
MMP-14; value outside parentheses
  Ki: 6540 nM

## CCCCOc1ccc(N2CCN(S(=O)(=O)C3(C(=O)NO)CCN(Cc4cccnc4)CC3)CC2)cc1F [Example 293]
MMP-9; value outside parentheses
  Ki: 2.21 nM
MMP-14; value outside parentheses
  Ki: 5440 nM

## CCCCOc1ccc(N2CCN(S(=O)(=O)C3(C(=O)NO)CCN(c4ccc(C)cc4)CC3)CC2)cc1 [Example 295]
MMP-9; value outside parentheses
  Ki: 17.1 nM
MMP-14; value outside parentheses
  Ki: 8650 nM

## CCCCOc1ccc(N2CCN(S(=O)(=O)C3(C(=O)NO)CCN(CC4CC4)CC3)CC2)cc1 [Example 298]
MMP-9; value outside parentheses
  Ki: 2.99 nM
MMP-14; value outside parentheses
  Ki: > 10000 nM

## Cc1cc(N2CCN(S(=O)(=O)C3(C(=O)NO)CCOCC3)CC2)ccc1OC(C)C [Example 299]
MMP-9; value outside parentheses
  Ki: 43.6 nM
MMP-14; value outside parentheses
  Ki: > 10000 nM

## CS(=O)(=O)c1ccc(N2CCN(S(=O)(=O)C3(C(=O)NO)CCOCC3)CC2)cc1 [Example 300]
MMP-9; value outside parentheses
  Ki: 142 nM
MMP-14; value outside parentheses
  Ki: > 10000 nM

## C#CCN1CCC(C(=O)NO)(S(=O)(=O)N2CCN(c3ccc(OCCCC)cc3)CC2)CC1 [Example 303]
MMP-9; value outside parentheses
  Ki: 1.48 nM
MMP-14; value outside parentheses
  Ki: 5000 nM

## CCCCCc1ccc(C2CCN(S(=O)(=O)C3(C(=O)NO)CCOCC3)CC2)nc1 [Example 305]
MMP-9; value outside parentheses
  Ki: 0.133 nM
MMP-14; value outside parentheses
  Ki: 645 nM
